Data reported in patent US20230339949A1, “HETEROCYCLIC SUBSTITUTED FUSED y-CARBOLINE DERIVATIVE, PREPARATION METHOD THEREFOR, INTERMEDIATE THEREOF AND USE THEREOF” (SHUJING BIOPHARMA CO., LTD, priority 2020, published 2023).
Where two headings read alike, the source gives them in different places.

Experiments:
[1] = target: T1, 5-HT2A receptor (Homo sapiens, UniProt P28223); assay: Functional detection experiment of 5-HT2A receptor (cultured cells), calcium influx assay; assay type: cell-based
T1 construct: expressed in transfected cells
Description: The antagonistic effect of the compound of the present disclosure on the 5-HT2A receptor was detected by a calcium influx assay at the cellular level.
• (1) Test compounds: compounds of the embodiments of the present disclosure, self-made. • (2) Control compound: serotonin hydrochloride 5-hydroxytryptamine (Sigma, H9523), Ketanserin (Targetmol, T1066). • (3) Stable cell line:
• (1) Preparation of test compounds: the compounds of the embodiments of the present disclosure were respectively dissolved in DMSO to prepare 10 mM mother liquor, and the mother liquor was stored in the nitrogen cabinet for later use. • (2) Preparation of control compound: the control compound was dissolved in DMSO to prepare 10 mM mother liquor, and the mother liquor was repackaged and stored in the refrigerator at -80° C. for later use. • (3) Preparation of 250 mM probenecid solution: 1 mL experimental buffer was added into a tube containing 77 mg powder, and the powder was dissolved by vortex oscillation. • (4) Preparation of 2× fluorescent probe solution: a bottle of fluorescent probe dry powder was taken out to balance to room temperature, and 10 mL of experimental buffer solution and 200 μL of 250 mM probenecid solution were added thereto, and the mixture was scrolled and let stand for 5 minutes to ensure complete dissolution. • (5) Experimental buffer HBSS: HBSS and HEPES were mixed evenly in a ratio of 50:1, stored in a refrigerator at 4° C., and heated at 37° C. when used.
• (1) Cells were taken out from the liquid nitrogen tank and melted in a water bath at 37° C. The surface of the cryopreservation tube was wiped with 75% alcohol and put in the biosafety cabinet. • (2) The cell suspension was transferred to a 15 mL centrifuge tube with 4 mL preheated plating medium, and the tube was centrifuged at 1000 rpm for 5 minutes. • (3) The supernatant was discarded, and 10 mL of plating medium was added and blown gently, and the mixture was transferred to a culture dish for growth. After the cells had adhered to the wall for 24 hours, they were replaced with growth medium for continuous culture.
• (1) The logarithmic growth cells was taken and the cells grew to about 85%-90%. The cells were performed the following operations: cell cleaning, digestion, termination, then transferred to a 15 mL centrifuge tube, and the tube was centrifuged at room temperature at 1000 rpm for 5 minutes. • (2) The supernatant was discarded, and a certain plating medium was added and blown gently. 20 μL of cell suspension was taken out and counted. • (3) Cells were diluted to 1×10^6 cells/mL and 20 μL of cell suspension was added to each well of the cell plate (Greiner-781946), so that the density of each well is 2×10^4 cells/well. • (4) The cell plate was incubated in an incubator with 5% CO2 at 37° C. for 16-24 hours. […]

[2] = target: T2, D2L receptor (Homo sapiens, UniProt P14416); assay: Functional activity test on D2L receptor, cAMP detection (Gi antagonist test); assay type: cell-based; settings: cryopreserved CHO-K1/D2L/Gα15 cells, forskolin + dopamine EC90
T2 construct: expressed in transfected cells
Description: (§1) The antagonistic effects of the compounds of the present disclosure on D2L and D2S receptors were detected by cyclic adenosine monophosphate (cAMP) detection method at cell-level.
(§2) • (1) Test compound: compounds of the embodiment of the present disclosure, self-made. • (2) Control compound: dopamine hydrochloride (Sigma, H8502), (+)-Butaclamol hydrochloride (Sigma, D033). • (3) Stable cell line:
(§3) • (1) Preparation of test compounds: the compounds of the embodiments of the present disclosure were respectively dissolved in DMSO to prepare 10 mM mother liquor, and the mother liquor was stored in the nitrogen cabinet for later use. • (2) Preparation of control compound: the control compound was dissolved in DMSO to prepare 10 mM mother liquor, and the mother liquor was repackaged and stored in the refrigerator at −80° C. for later use. • (3) IBMX was dissolved in DMSO to prepare 0.5 M stock solution and the stock solution was cryopreserved at −80° C. • (4) Forskolin was dissolved in DMSO to prepare 1 mM stock solution and the stock solution was cryopreserved at −80° C. for later use. • (5) Experimental buffer: 5× stimulation buffer was diluted to 1× with ddH2O and IBMX with a final concentration of 0.5 mM was added thereto, and the solution was mixed well for later use.
(§4) • (1) Preparation of compounds: the test compounds and positive control compound (+)-Butaclamol hydrochloride were diluted gradient using Bravo in the compound plate (Greiner-781280), and the initial concentration of working solution was 20 μM, and the working solution was diluted at 4-fold for 10 concentrations and centrifuged at 1000 rpm for 1 minute for later use. • (2) Cryopreserved D2L cells: cells was taken out from the liquid nitrogen tank and thaw in a water bath at 37° C., and the cell suspension was transferred to a centrifuge tube containing HBSS buffer, and centrifuged at 750 rpm for 5 minutes.
(§5) Cultured D2S cells: after absorbing the culture medium, the cells were washed with 3 mL PBS, sucked out, digested with 0.05% Trypsin for 3 min, terminated with equal volume of culture medium, transferred to centrifuge tube, and centrifuged at 750 rpm for 5 minutes. After absorbing the liquid, the centrifuge tube was added with a buffer solution containing HBSS and re-suspend, and centrifuged at 750 rpm for 5 minutes. • (3) The supernatant was discarded, and the precipitate was re-suspended with proper amount of experimental buffer, and 20 μL was taken for cell counting. • (4) Appropriate amount of cell suspension was removed, and the cell suspension was diluted to 2×10^5 cells/mL with experimental buffer, and the cell plate (PerkinElmer-6008280) was added with 5 μL/well cell suspension, and centrifuged at 1000 rpm for 1 minute. • (5) 5 μL/well was transferred to the cell plate with Bravo, and the cell plate was centrifuged at 1000 rpm for 1 minute, then the cell plate was closed and incubated at room temperature for 15 minutes. • (6) Forskolin was transferred to the cell plate with Tecan-D300e, and Dopamine hydrochloride with a final concentration of EC90 was transferred to the cell plate. • (7) The cell plate was centrifuged at 1000 rpm for 1 minute, then sealed and incubated at room temperature for 45 minutes. • (8) Standard curve: cAMP with the stock solution concentration of 2848 nM was diluted 4-fold continuously at 8 points according to the initial maximum concentration of 712 nM, and 10 μL/well was taken out to add to the cell plate. • (9) 10 μL/well of detection solution containing cAMP-d2 and Anti-cAMP-Cryptate (diluted with pyrolysis buffer at 1:20) was added to the cell plate, and the cell plate was centrifuged at 1000 rpm for 1 minute, and incubated at room temperature without light for 1 hour. • (10) Detection: the cell plate was centrifuged at 1000 rpm for 1 minute, and the plate was read with Envision (excitation light 340 nm, emission light 620 nm and 665 nm). […]

[3] = target: T3, D2S receptor (Homo sapiens, UniProt P14416); assay: Functional activity test on D2S receptor, cAMP detection (Gi antagonist test); assay type: cell-based; settings: cultured HEK293/D2S cells, forskolin + dopamine EC90
T3 construct: expressed in transfected cells
Description: as §1, §2, §3, §4, §5

[4] = tested on: DOI-induced head-shaking behavior; assay: DOI-induced head-shaking behavior in mice; assay type: in vivo, ICR mice; settings: Mus musculus, read-out: ED50 (half effective dose)
Description: The efficacy of the compounds of the present disclosure was evaluated by the mice model of head-shaking behavior induced by intraperitoneal injection of (±) DOI (a hallucinogenic agent usually used to replicate anti-schizophrenic animal model).
(§6) Experimental animals: ICR mice, male, 8 mice/group, Spelford (Beijing) Biotechnology Co., Ltd.
Preparation of drug: the test compounds were taken, and solvent was added, and ultrasonication was performed.
Administration route and method: oral gavage administration, 10 mL/kg (body weight).
(§7) Administration frequency and duration: single dose.
Animals were stratified by body weight and then randomly divided into blank group, model group, and administration groups, and detailed information of administration is shown in the following table.
Mice were stratified according to body weight and then randomly divided into model group, blank group and each administration group. One hour after the animals were gavage administration of the solvent or drugs, they were placed in a beaker (13 cm in diameter, 19 cm in height) with fresh padding, and the model drug DOI was injected intraperitoneally at a dose of 1 mg/kg. The times of head-shaking were recorded within 0-20 minutes after DOI was injected intraperitoneally.
Head-shaking behavior is defined as rapid rotational twitch of mouse's head or wet dog-like shaking, which should be different from normal hair grooming or inquiry behavior.
(§8) The experimental data were expressed as x±SD, and SPSS statistical software was used to test the homogeneity of variance. If the variance was homogeneous, single factor analysis of variance was performed, and Dunnett t test is used for pairwise comparison. The ED50 was calculated by nonlinear fitting with GraphPad Primis5 software.

[5] = tested on: MK-801 induced hyperactivity behavior; assay: MK-801 induced hyperactivity behavior in mice; assay type: in vivo, ICR mice; settings: for ED50: Mus musculus, read-out: ED50 (half effective dose)
Description: The efficacy of the compounds of the present disclosure was evaluated by high activity model of mice induced by intraperitoneal injection of MK-801.
as §6
Preparation of drug: the test compounds were taken, and pure water was added, and ultrasonication was performed.
Administration route and method: gavage administration, 10 mL/kg (body weight).
as §7
Animals were stratified by body weight and then randomly divided into blank group, model group, and administration group, and detailed information of administration is shown in the following table.
Mice were stratified according to body weight and then randomly divided into model group, blank group and each administration group. One hour after the gavage administration of solvent or drug, 0.3 mg/kg MK-801 was injected intraperitoneally (the blank group was injected with the same volume of physiological saline), and then the mice were put into an independent activity box (a black polyethylene box with the specification of 29 cm×29 cm×30 cm) for video recording for 60 minutes, and video analysis was performed at the end of the recording to evaluate the activity of the mice.
as §8

[6] = cultured CHO-K1/5-HT2A cells, calcium influx (FLIPR), antagonist mode vs agonist EC80, read-out: 5-HT2A IC50
[7] = male ICR mice, single gavage dose 1 h before MK-801 0.3 mg/kg i.p., activity recorded 60 min

T2 sequence (P14416 whole entry): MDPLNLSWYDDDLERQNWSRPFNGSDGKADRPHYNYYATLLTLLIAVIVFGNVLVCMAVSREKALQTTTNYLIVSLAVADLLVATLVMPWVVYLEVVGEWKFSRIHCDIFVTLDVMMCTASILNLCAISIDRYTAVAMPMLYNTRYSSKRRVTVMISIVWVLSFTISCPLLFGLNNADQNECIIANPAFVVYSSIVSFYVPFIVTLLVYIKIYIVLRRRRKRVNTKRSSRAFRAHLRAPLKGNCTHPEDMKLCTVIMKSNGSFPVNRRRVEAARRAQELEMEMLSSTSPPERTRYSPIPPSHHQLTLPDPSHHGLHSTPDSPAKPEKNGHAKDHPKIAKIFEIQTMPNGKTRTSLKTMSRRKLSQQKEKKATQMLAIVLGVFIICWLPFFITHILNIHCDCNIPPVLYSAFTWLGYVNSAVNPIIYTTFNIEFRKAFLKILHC
T1 sequence (P28223 whole entry): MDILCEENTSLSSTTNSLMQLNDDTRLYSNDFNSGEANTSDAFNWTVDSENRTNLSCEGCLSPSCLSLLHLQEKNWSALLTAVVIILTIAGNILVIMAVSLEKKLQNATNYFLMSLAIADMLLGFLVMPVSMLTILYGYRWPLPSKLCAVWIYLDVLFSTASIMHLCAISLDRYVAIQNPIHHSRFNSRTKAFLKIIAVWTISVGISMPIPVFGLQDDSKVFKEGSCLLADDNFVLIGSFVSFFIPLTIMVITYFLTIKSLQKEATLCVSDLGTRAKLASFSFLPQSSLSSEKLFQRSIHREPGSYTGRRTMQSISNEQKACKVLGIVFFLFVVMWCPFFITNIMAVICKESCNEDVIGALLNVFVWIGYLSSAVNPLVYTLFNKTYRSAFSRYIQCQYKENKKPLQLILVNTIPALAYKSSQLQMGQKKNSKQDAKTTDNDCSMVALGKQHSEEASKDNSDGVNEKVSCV
T3 sequence (P14416 1-414 isoform P14416-2): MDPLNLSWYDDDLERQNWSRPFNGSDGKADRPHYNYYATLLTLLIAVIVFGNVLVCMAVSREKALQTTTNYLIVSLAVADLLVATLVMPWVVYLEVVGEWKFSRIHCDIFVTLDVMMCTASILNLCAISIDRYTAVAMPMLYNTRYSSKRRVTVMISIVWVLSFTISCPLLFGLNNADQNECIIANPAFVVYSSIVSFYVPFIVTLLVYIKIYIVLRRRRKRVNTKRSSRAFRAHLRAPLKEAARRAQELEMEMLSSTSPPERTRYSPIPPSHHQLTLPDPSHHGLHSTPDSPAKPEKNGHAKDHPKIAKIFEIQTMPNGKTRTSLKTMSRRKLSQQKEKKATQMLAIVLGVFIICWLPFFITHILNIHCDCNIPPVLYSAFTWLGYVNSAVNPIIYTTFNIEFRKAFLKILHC

| IC50 [1, 6] | IC50 [2] | IC50 [3] | Structure (SMILES) | IC50 [1] | ED50 [4] | ED50 [5] | MED (lowest effective dose) [5, 7] | ED50 [5, 7] |
| --- | --- | --- | --- | --- | --- | --- | --- | --- |
| 108 nM | 15.5 nM | 63.1 nM | CN1C(=O)CN2c3c1cccc3[C@@]1(C)CN(CCCC(=O)c3ccc(F)cc3)CC[C@@H]21 [Embodiment 1-B, (6bS,10aR)-8-(4-(4-fluorophenyl)-4-oxobutyl)-3,6b-dimethyl-6b,7,8,9,10,10a-hexahydro-1H-pyrido[3′,4′:4,5]pyrrolo [1,2,3-de]quinoxalin-2(3H)-one] |  |  |  |  |  |
| 9.11 nM | 88.8 nM | 264 nM | CN1C(=O)CN2c3c(cccc31)[C@@H]1CN(CCCC(=O)c3ccc(F)cc3)CC[C@@H]12 [Comparative embodiment 1-A, reference compound] |  |  |  |  |  |
|  |  |  | CN1C(=O)C(C)(C)N2c3c1cccc3C1(C)CN(CCCC(=O)c3ccc(F)cc3)CCC21 (centres unmarked) [Embodiment 4, 8-(4-(4-fluorophenyl)-4-oxobutyl)-1,1,3,6b-tetramethyl-6b,7,8,9,10,10a-hexahydro-1H-pyrido [3′,4′:4,5]pyrrolo[1,2,3-de]quinoxalin-2(3H)-one] | 19.7 nM | 0.42 mg/kg |  |  |  |
|  |  |  | CN1CCN2c3c1cccc3C1(C)CN(CCCC(=O)c3ccc(F)cc3)CCC21 (centres unmarked) [Embodiment 7, 4-(3,6b-dimethyl-2,3,6b,9,10,10a-hexahydro-1H-pyrido[3′,4′:4,5]pyrrolo[1,2,3-de]quinoxalin-8(7H)-yl)-1-(4-fluorophenyl)butan-1-one] | 3.5 nM |  | 0.09 mg/kg | 0.1 mg/kg |  |
|  | 35.8 nM | 622 nM | CN1CCN2c3c(cccc31)C1CN(CCCC(=O)c3ccc(F)cc3)CCC12 (centres unmarked) [Comparative embodiment 2, 1-(4-fluorophenyl)-4-(3-methyl-2,3,6b,9,10,10a-hexahydro-1H-pyrido[3′,4′:4,5]pyrrolo[1,2,3-de]quinoxalin-8(7H)-yl)butan-1-one, reference compound] |  |  |  |  |  |
|  | 13.1 nM | 93.4 nM | Cn1c(=O)c(=O)n2c3c(cccc31)C1(C)CN(CCCC(=O)c3ccc(F)cc3)CCC21 (centres unmarked) [Embodiment 5, 8-(4-(4-fluorophenyl)-4-oxobutyl)-3,6b-dimethyl-6b,7,8,9,10,10a-hexahydro-1H-pyrido[3′,4′:4,5]pyrrolo[1,2,3-de]quinoxaline-1,2(3H)-dione] |  |  |  |  |  |
| 44.4 nM | 200 nM | 364 nM | CN1C(=O)CN2c3c(cccc31)C1CN(CCCC(=O)c3ccc(F)cc3)CCC12 (centres unmarked) [Comparative embodiment 1, 8-(4-(4-fluorophenyl)-4-oxobutyl)-3-methyl-6b,7,8,9,10,10a-hexahydro-1H-pyrido [3′,4′:4,5]pyrrolo[1,2,3-de]quinoxalin-2(3H)-one, reference compound] |  |  |  | 1 mg/kg | 1.28 mg/kg |

| Structure (SMILES) | IC50 [1, 6] | IC50 [2] | IC50 [3] | IC50 [1] | ED50 [4] | ED50 [5] | MED (lowest effective dose) [5, 7] | ED50 [5, 7] |
| --- | --- | --- | --- | --- | --- | --- | --- | --- |
| CCN1C(=O)CN2c3c1cccc3C1(C)CN(CCCC(=O)c3ccc(F)cc3)CCC21 (centres unmarked) [Embodiment 3, 3-ethyl-8-(4-(4-fluorophenyl)-4-oxobutyl)-6b-methyl-6b,7,8,9,10,10a-hexahydro-1H-pyrido[3′,4′:4,5]pyrrolo[1,2,3-de]quinoxalin-2(3H)-one] |  | 51.4 nM | 207 nM |  | 0.21 mg/kg |  |  |  |
